# Read-outs that look alike come from different tables or passages of the source. Marks after values point to notes of the source that are not given here.
# Experiments:
# [1] = Physical properties of dabigatran etexilate; format: physicochemical
# [2] = Clinical pharmacokinetics and pharmacodynamics of dabigatran etexilate; conditions: in vivo
# [3] = test system: patients with chronic atrial fibrillation; assay: PETRO study, phase 2 12-week dose finding study; format: in vivo, human
# Text: Primary endpoints were bleeding events and changes in D-dimer. […] Minor bleeding was dose related.
# [4] = test system: patients with atrial fibrillation
# Protocol: PETRO-Ex began while the PETRO study was ongoing and investigators were initially kept blinded to patient treatment group until PETRO was completed. Unblinding investigators to patient treatment was possible thereafter.
# Data were summarized descriptively; no hypothesis was to be tested. Events were analyzed on the basis of the treatment at onset. Incidences were reported as number of patients with events as well as normalized to 100 patient years on the respective treatment.
# Patients who completed PETRO on 50 mg b.i.d. were switched to 150 mg q.d. upon entry in the PETRO-Ex study (N=93 patients). […] Patients who were down titrated to 50 mg q.d. based on a glomerular filtration rate ≦50 mL/min during PETRO were excluded from the long-term trial; patients down-titrated in other dose levels remained on the q.d. treatment at that dose.
# The former is represented by the number of thromboembolic events per 100 years, the latter by the number of bleeding events per 100 years.
# [5] = test system: cytochrome P-450 drug metabolizing enzymes; assay: Cytochrome P-450 interaction; format: in vitro ADME
# [6] = 300 mg b.i.d., listed as dabigatran etexilate
# [7] = PETRO-Ex, Dabigatran etexilate All doses
# [8] = PETRO-Ex, including bleeding and thrombotic events
compound,measurement,setting,value
"CCCCCCOC(=O)NC(=N)c1ccc(NCc2nc3cc(C(=O)N(CCC(=O)OCC)c4ccccn4)ccc3n2C)cc1 [Dabigatran etexilate, 1-methyl-2-[N-[4-(N-n-hexyloxycarbonylamidino)phenyl]aminomethyl]benzimidazol-5-ylcarboxylic acid-N-(2-pyridyl)-N-(2-ethoxycarbonylethyl)amides]",Hygroscopicity,[1],hygroscopic
same,Solubility in water,[1],sparingly soluble in water
same,Food interactions,[2],no food interactions
same,"Systemic thromboembolic events, number",[3]; 50 mg b.i.d. group,2
same,Major bleeding events,[3]; 300 mg b.i.d. plus ASA groups,6%
same,"Major bleeding events, number",[3]; 300 mg b.i.d. plus ASA groups,Four
same,Minor bleeding,"[3]; 50, 150 and 300 mg b.i.d.",dose related
same,Elevated transaminases >3×upper limit of normal (ULN),"[3]; dabigatran etexilate-treated patients, all doses",0.9%
same,"Elevated transaminases >3×upper limit of normal (ULN), number of patients",[3]; of 432 dabigatran etexilate-treated patients,4
same,Adverse Events leading to premature discontinuation (rate),[4]; 50 mg b.i.d.,21.3 per 100 patient years
same,Other MACE (rate),[4]; 50 mg b.i.d.,8.5 per 100 patient years
same,Stroke and Systemic Thromboembolism (rate),[4]; 50 mg b.i.d.,12.8 per 100 patient years
same,Stroke and Systemic Thromboembolism (rate),"[4]; 50 mg b.i.d., listed as dabigatran etexilate",more than 12 per 100 patient years
same,ALT or AST >2xULN (rate),[4]; 150 mg b.i.d.,3.1 per 100 patient years
same,ALT or AST >3xULN (rate),[4]; 150 mg b.i.d.,1.9 per 100 patient years
same,ALT or AST >3xULN and Bili >2xULN within 30 days (rate),[4]; 150 mg b.i.d.,0.4 per 100 patient years
same,ALT or AST >5xULN (rate),[4]; 150 mg b.i.d.,1.0 per 100 patient years
same,Adverse Events leading to premature discontinuation (rate),[4]; 150 mg b.i.d.,9.8 per 100 patient years
same,"Fatal major bleeds, number",[4]; 150 mg b.i.d.,4
same,MI (rate),[4]; 150 mg b.i.d.,0.9 per 100 patient years
same,Major Bleeds (rate),[4]; 150 mg b.i.d.,4.2 per 100 patient years
same,"Major Bleeds, of these with aspirin (rate)",[4]; 150 mg b.i.d.,8.7 per 100 patient years
same,"Major Bleeds, of these without aspirin (rate)",[4]; 150 mg b.i.d.,3.2 per 100 patient years
same,Major bleeding events,[4]; 150 mg b.i.d.,4.2 % per year
same,Other MACE (rate),[4]; 150 mg b.i.d.,1.0 per 100 patient years
same,Stroke and Systemic Thromboembolism (rate),[4]; 150 mg b.i.d.,1.0 per 100 patient years
same,TIA (rate),[4]; 150 mg b.i.d.,0.1 per 100 patient years
same,Thromboembolic events and stroke rate,[4]; 150 mg b.i.d.,1 % per year
same,ALT or AST >2xULN (rate),[4]; 150 mg q.d.,3.4 per 100 patient years
same,Adverse Events leading to premature discontinuation (rate),[4]; 150 mg q.d.,13.7 per 100 patient years
same,Major Bleeds (rate),[4]; 150 mg q.d.,5.1 per 100 patient years
same,"Major Bleeds, of these without aspirin (rate)",[4]; 150 mg q.d.,6.5 per 100 patient years
same,Stroke and Systemic Thromboembolism (rate),[4]; 150 mg q.d.,5.1 per 100 patient years
same,Stroke and Systemic Thromboembolism (rate),"[4]; 150 mg q.d., listed as dabigatran etexilate",about 5 per 100 patient years
same,ALT or AST >2xULN (rate),[4]; 300 mg b.i.d.,4.9 per 100 patient years
same,ALT or AST >3xULN (rate),[4]; 300 mg b.i.d.,2.4 per 100 patient years
same,ALT or AST >5xULN (rate),[4]; 300 mg b.i.d.,1.2 per 100 patient years
same,Adverse Events leading to premature discontinuation (rate),[4]; 300 mg b.i.d.,25.6 per 100 patient years
same,Major Bleeds (rate),[4]; 300 mg b.i.d.,12.2 per 100 patient years
same,"Major Bleeds, of these with aspirin (rate)",[4]; 300 mg b.i.d.,32.7 per 100 patient years
same,"Major Bleeds, of these without aspirin (rate)",[4]; 300 mg b.i.d.,6.3 per 100 patient years
same,Major bleeding events,[4]; 300 mg b.i.d.,12.2 % per year
same,Other MACE (rate),[4]; 300 mg b.i.d.,1.2 per 100 patient years
same,Stroke and Systemic Thromboembolism (rate),[4]; 300 mg b.i.d.,1.2 per 100 patient years
same,Thromboembolic events and stroke rate,[4]; 300 mg b.i.d.,1.2 % per year
same,Major Bleeds (rate),[4]; [6],more than 12 per 100 patient years
same,Stroke and Systemic Thromboembolism (rate),[4]; [6],about 1 per 100 patient years
same,ALT or AST >2xULN (rate),[4]; 300 mg q.d.,1.5 per 100 patient years
same,ALT or AST >3xULN (rate),[4]; 300 mg q.d.,1.5 per 100 patient years
same,ALT or AST >3xULN and Bili >2xULN within 30 days (rate),[4]; 300 mg q.d.,0.5 per 100 patient years
same,ALT or AST >5xULN (rate),[4]; 300 mg q.d.,1.5 per 100 patient years
same,Adverse Events leading to premature discontinuation (rate),[4]; 300 mg q.d.,9.6 per 100 patient years
same,"Fatal major bleeds, number",[4]; 300 mg q.d.,1
same,MI (rate),[4]; 300 mg q.d.,0.5 per 100 patient years
same,Major Bleeds (rate),[4]; 300 mg q.d.,2.5 per 100 patient years
same,"Major Bleeds, of these with aspirin (rate)",[4]; 300 mg q.d.,3.6 per 100 patient years
same,"Major Bleeds, of these without aspirin (rate)",[4]; 300 mg q.d.,2.1 per 100 patient years
same,Major bleeding events,[4]; 300 mg q.d.,2.5 % per year
same,Other MACE (rate),[4]; 300 mg q.d.,0.5 per 100 patient years
same,Stroke and Systemic Thromboembolism (rate),[4]; 300 mg q.d.,2.5 per 100 patient years
same,Stroke and Systemic Thromboembolism (rate),"[4]; 300 mg q.d., listed as dabigatran etexilate",more than 2 per 100 patient years
same,Tolerability,[4]; 300 mg twice daily,not tolerable
same,Serious adverse events: cardiac disorders,[4]; PETRO-Ex,22%
same,"Serious adverse events: cardiac disorders, pts",[4]; PETRO-Ex,80
same,Serious adverse events: gastrointestinal disorders,[4]; PETRO-Ex,7.8%
same,"Serious adverse events: gastrointestinal disorders, pts",[4]; PETRO-Ex,28
same,Serious adverse events: infections,[4]; PETRO-Ex,9.4%
same,"Serious adverse events: infections, pts",[4]; PETRO-Ex,34
same,Serious adverse events: nervous system disorders,[4]; PETRO-Ex,9.1%
same,"Serious adverse events: nervous system disorders, pts",[4]; PETRO-Ex,33
same,Stroke and systemic embolism (per 100 patient years),"[4]; PETRO-Ex, Dabigatran etexilate 150 mg b.i.d.",1.0%
same,Major bleeding events (per 100 patient years),"[4]; PETRO-Ex, Dabigatran etexilate 150 mg b.i.d., without concomitant aspirin",3.2%*
same,LFT abnormalities >3 xULN (per 100 patient years),[4]; [7],1.7%
same,Myocardial Infarction,[4]; [7],0.7%
same,Serious adverse events,[4]; [8],51%
same,"Serious adverse events, patients",[4]; [8],184
same,ALT or AST >2xULN (rate),[4]; Total,2.9 per 100 patient years
same,ALT or AST >3xULN (rate),[4]; Total,1.7 per 100 patient years
same,ALT or AST >3xULN and Bili >2xULN within 30 days (rate),[4]; Total,0.4 per 100 patient years
same,ALT or AST >5xULN (rate),[4]; Total,1.1 per 100 patient years
same,Adverse Events leading to premature discontinuation (rate),[4]; Total,11.5 per 100 patient years
same,MI (rate),[4]; Total,0.7 per 100 patient years
same,Major Bleeds (rate),[4]; Total,4.2 per 100 patient years
same,"Major Bleeds, of these with aspirin (rate)",[4]; Total,8.5 per 100 patient years
same,"Major Bleeds, of these without aspirin (rate)",[4]; Total,3.2 per 100 patient years
same,Other MACE (rate),[4]; Total,1.1 per 100 patient years
same,Stroke and Systemic Thromboembolism (rate),[4]; Total,1.9 per 100 patient years
same,TIA (rate),[4]; Total,0.1 per 100 patient years
same,Concomitant bilirubin elevation >2×ULN within 30 days of transaminase elevations >3×ULN,[4]; all doses,0.4 % per year
same,"Elevated liver transaminases, AST or ALT >3×ULN",[4]; all doses,1.7 % per year
same,"Fatal intracranial bleeds, number",[4]; all doses,Three
same,"Fatal major bleeds, number",[4]; all doses,Five
same,Transaminases (AST or ALT) >5×ULN,[4]; all doses,1.1 % per year
same,Major bleed rate,[4]; doses ≦150 mg/day (150 mg q.d. combined with 50 mg b.i.d.),3.7 % per year
same,Bleeding event rate,[4]; on concomitant aspirin,8.5 % per year
same,Stroke or systemic thromboembolic event rates,[4]; the two highest doses,approximately 1 % per year
same,Bleeding event rate,[4]; without concomitant aspirin,3.2 % per year
same,Annualized thromboembolic event rate,[4]; ≦150 mg/day,over 5.0 per 100 patient years
same,"Metabolism by, induction or inhibition of cytochrome P-450",[5],not metabolized by and does not induce or inhibit cytochrome P-450 drug metabolizing enzymes

# Reference: patent US20110251160A1 (priority 2008, published 2011)
